Source: patent US20260109721A1, “IONIZABLE CATIONIC LIPIDS INCORPORATING SILICON: SYNTHESIS AND LNP FORMULATION” (priority 2023, published 2026)

Experiments:
HeLa cells [1] = experiment: Cell viability assessment with resazurin assay (Method A); format: cell-based; settings: human
Method: (§1) The synthesized lipids were tested in term of in vitro transfection efficacy and toxicity on HeLa cells. In order to perform the mentioned biological tests, appropriate LNPs had to be formulated from the synthesized lipids. The formulation technique was different in Method A and B. The particle size, polydispersity index (PDI) and zeta potential of resulting LNPs were determined by means of Dynamic Light Scattering technique (DLS). Prior to biological testing the encapsulation efficiency (EE) of the loaded LNPs was determined by using RiboGreen RNA assay. In case of Method A Luc mRNA while in case of Method B GFP mRNA was transfected into the cells. In parallel with the transfection experiments, toxicity of the investigated LNPs was determined, in case of Method A resazurin assay while in case of Method B MTT assay was used. Additionally, the toxicity of the lipids was investigated on HepG2 cells and IC50 values were determined.
This protocol is used to determine the metabolic activity of cells as a measure for cell viability after exposure to potentially toxic substances. Resazurin is converted in mitochondria by reduction to resorufin, which has a much higher fluorescence at ˜600 nm compared to unconverted resazurin. A lower amount/percentage of conversion is correlated with reduced cellular metabolism and indirectly to cellular death and toxicity. Care must be taken with interpretation of the read-out, as 50% reduction in resazurin conversion may mean 50% reduction of cellular metabolism of 100% alive cells, or 50% of cells dead, and any combination in between.
• 1. Prepare 0.25 mg/ml stock solution resazurin in fresh cell culture medium. Resazurin is auto-reducing over time in solution, especially in medium, and fresh stocks should be prepared every 2-3 days. Stocks should be stored at 4° C. and protected from light. For HeLa cells, DMEM/F12 with 10% FCS is used. • 2. Dilute stock solution 10× in fresh cell culture medium to 0.025 mg/ml->ready for application on cells. For HeLa cells, DMEM/F12 with 10% FCS is used. • 3. Collect 96-well plate and replace cell-culture spent medium with 100 μl per well resazurin solution. Add some resazurin solution for background measurement in wells not containing cells. • 4. Incubate for 50 minutes in incubator at 37° C., 5% CO2, 95% RH. • 5. Transfer resazurin solution to a fresh 96- or 384-well plate. • 6. Measure in plate reader using 540/25 nm (excitation) and 610/40 nm (emission) using standard settings (PTM low/OD-1.0). • 7. Subtract the average background measurement from all samples. Set the average of the negative controls (well receiving OptiMEM only during transfection) to 100% and express all values as percentage of the control activity. Typically, at lower levels of treatment, elevation of metabolic activity is shown, whereas for toxic substances, at toxic concentrations sigmoidal curves can be obtained, with lower activity indicating higher toxicity.

HepG2 cell line = experiment: In vitro toxicity study on HepG2 cell line (resazurin, viability and IC50); format: cell-based, human; settings: resazurin; for Viability (%) at different lipid concentrations, mean: HepG2 cells, 48 h post-treatment, relative to ethanol vehicle controls; for IC50: Homo sapiens, lipid toxicity, HepG2, 48 h post-treatment, 6.25-800 μM, read-out: IC50 value, μM (on HepG2 cell)
Method in brief: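 Resazurin read-out (ex 530/em 580 nm, 5 h at 37 °C) measured lipid toxicity 48 h after dosing HepG2 cells (1000/well) at 6.25–800 μM. Viability was normalised to ethanol vehicle, and IC50 was derived from concentration-response curves.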

HeLa cells [2] = experiment: Transfection efficiency with Luciferase (SecNLuc) mRNA, Nano-Glo assay (Method A); format: cell-based; settings: Luc mRNA, 24 h, luminescence; for Transfection 10 ng mRNA: 10 ng mRNA/well; for Transfection 50 ng mRNA: 50 ng mRNA/well; for Transfection 100 ng mRNA: 100 ng mRNA/well
Method: as §1
• 1. Prepare mRNA solution by adding 100 ng mRNA (SecNLuc, #P009024, RiboPro) to 5 μl Opti-MEM • multiply by number of wells, include different concentrations and add 10% extra • a standard set-up we use is 100 ng-50 ng-10 ng mRNA/well in triplicate, which would need […] mRNA (includes 10% extra)
• 2. (If applicable) Prepare different concentrations in Opti-MEM (for instance 100/50/10 ng). • 3. Add 10 μl to each well and mix carefully by pipetting. • 4. Mix by swirling the plate horizontally at modest speed. Reverse in direction 3 times. • 5. Incubate for 24 hours (incubator).
This protocol is applied to measure luciferase activity for secreted NanoLuc and is based on the protocol by Promega (Nano-Glo® Luciferase Assay System #N1110-1150). The protocol is designed for a 384-wells plate, but volumes can be changed accordingly for other plates.
• 1. Plate cells (HeLa) in 96-well plate, grow until 80% confluent and transfect with SecNanoLuc mRNA and incubate for the desired period (24 h). • 2. After incubation, the translated protein is accumulated in the medium. Transfer medium to a new plate or tubes. • 3. Transfer 12 μl of each sample to a black-walled, clear-bottom 384-well plate • Black-walled plates are important to prevent shine-through of luminescence from other wells; alternatively, multiple wells between samples can be left empty. • 4. Set-up plate reader • 5. Prepare the desired amount of Nano-Glo® Luciferase Assay Reagent by combining one volume of Nano-Glo® Luciferase Assay Substrate with 50 volumes of Nano-Glo® Luciferase Assay Buffer: • a. composition: 100 mM MES pH 6; 1 mM EDTA; […]; 150 mM KCl; 1 mM DTT; 35 mM Thiourea; • b. briefly spin tubes containing substrate in a microcentrifuge before use. • 6. Add and mix (by pipetting) 12 μl Nano-Glo® Luciferase Assay Reagent per well • Wait approximately 3 minutes before measuring luminescence. […] Measure luminescence in plate reader using standard protocol luciferase (this includes mixing sample in plate reader)

Row | SMILES | Cell Viability % (Average metabolic rate over all doses, Resazurin) (HeLa cells [1]) [%] | Viability (%) at different lipid concentrations, mean (HepG2 cell line; 6.25 μM lipid) [%] | Viability (%) at different lipid concentrations, mean (HepG2 cell line; 12.5 μM lipid) [%] | Viability (%) at different lipid concentrations, mean (HepG2 cell line; 25 μM lipid) [%] | Viability (%) at different lipid concentrations, mean (HepG2 cell line; 50 μM lipid) [%] | Viability (%) at different lipid concentrations, mean (HepG2 cell line; 100 μM lipid) [%] | Viability (%) at different lipid concentrations, mean (HepG2 cell line; 200 μM lipid) [%] | Viability (%) at different lipid concentrations, mean (HepG2 cell line; 400 μM lipid) [%] | Viability (%) at different lipid concentrations, mean (HepG2 cell line; 800 μM lipid) [%] | IC50 (HepG2 cell line) [µM] | Transfection 10 ng mRNA (HeLa cells [2]) | Transfection 50 ng mRNA (HeLa cells [2]) | Transfection 100 ng mRNA (HeLa cells [2])
1 | CCCCC/C=C\C/C=C\CCCCCCCCOC(CCCCCCC/C=C\CCCCCCCC)O[Si](C)(C)OCCCCCCN(CCO)CCO (stereo not drawn) [Example 46, (23Z,26Z)-13-((Z)-heptadec-8-en-1-yl)-3-(2-hydroxyethyl)-11,11-dimethyl-10,12,14-trioxa-3-aza-11-siladotriaconta-23,26-dien-1-ol] | 95 | 103.7 | 100.6 | 101.2 | 97.4 | 103.1 | 101.8 | 99.8 | 92.1 | > 800 | 1.46E+05 | 1.93E+06 | 8.16E+06
2 | CCCCCCCC/C=C\CCCCCCCCOC(CCCCCCC/C=C\CCCCCCCC)O[Si](C)(C)OCCCCCCN(CCO)CCO (stereo not drawn) [Example 47, (Z)-13-((Z)-heptadec-8-en-1-yl)-3-(2-hydroxyethyl)-11,11-dimethyl-10,12,14-trioxa-3-aza-11-siladotriacont-23-en-1-ol] | 89 | 104.8 | 98.6 | 99.5 | 105.3 | 112.3 | 116.3 | 97.9 | 93.6 | > 800 | 3.37E+04 | 1.29E+06 | 7.06E+06
3 | CCCCC/C=C\C/C=C\CCCCCCCCOC(CCCCCCC/C=C\C/C=C\CCCCC)O[Si](C)(C)OCCCCCCN(CCO)CCO (stereo not drawn) [Example 48, (23Z,26Z)-13-((8Z,11Z)-heptadeca-8,11-dien-1-yl)-3-(2-hydroxyethyl)-11,11-dimethyl-10,12,14-trioxa-3-aza-11-siladotriaconta-23,26-dien-1-ol] | 99 | 97.4 | 102.2 | 95.7 | 97.8 | 99.6 | 101.5 | 98.4 | 68.3 | > 800 | 5.52E+02 | 1.65E+03 | 1.82E+03
4 | CCCCCCCCCCCCCCCCOC(CCCCCCCCCCCCCCC)O[Si](C)(C)OCCCCCCN(CCO)CCO (stereo not drawn) [Example 49, 3-(2-hydroxyethyl)-11,11-dimethyl-13-pentadecyl-10,12,14-trioxa-3-aza-11-silatriacontan-1-ol] | 93 | 101.6 | 100.3 | 100.4 | 101.0 | 106.4 | 118.4 | 112.6 | 103.0 | > 800 | 1.35E+05 | 6.74E+05 | 1.20E+06
5 | CCCCCCCC/C=C\CCCCCCCC(OCC(CCCCCC)CCCCCCCC)O[Si](C)(C)OCCCCCCN(CCO)CCO (stereo not drawn) [Example 50, (Z)-13-(heptadec-8-en-1-yl)-16-hexyl-3-(2-hydroxyethyl)-11,11-dimethyl-10,12,14-trioxa-3-aza-11-silatetracosan-1-ol] | 98 | 101.0 | 97.6 | 99.0 | 97.9 | 96.0 | 100.0 | 96.5 | 86.8 | > 800 | 5.85E+04 | 2.12E+06 | 8.19E+06
6 | CCCCCCCC/C=C\CCCCCCCCOC(CC[C@@H](C)C1CCC2C3CCC4C[C@H](OC)CC[C@]4(C)C3CC[C@@]21C)O[Si](C)(C)OCCCCCCN(CCO)CCO (stereo partly drawn) [Example 51, (Z)-3-(2-hydroxyethyl)-13-((3R)-3-((3R,10S,13R)-3-methoxy-10,13-dimethylhexadecahydro-1H-cyclopenta[a]phenanthren-17-yl)butyl)-11,11-dimethyl-10,12,14-trioxa-3-aza-11-siladotriacont-23-en-1-ol] | 92 | 98.6 | 94.4 | 96.3 | 100.0 | 109.9 | 114.9 | 102.9 | 98.6 | > 800 | 1.05E+04 | 1.70E+05 | 7.44E+05
